According to EP2966448B1, “METHOD FOR THE PREDICTION OR PROGNOSIS OF THE RESPONSE OF A HUMAN SUBJECT SUFFERING FROM CANCER TO TREATMENT WITH AN ANTAGONIST OF THE NK1 RECEPTOR” (priority 2013, dated 2014):
Read-outs that look alike come from different tables or passages of the source.

Key:
[1] = tested on: human primary tumor cells; assay: Inhibition of primary tumor cell cultures vs amplification of the gene encoding the NK1 receptor (Example 6; tumor type per table line); type: cell-based; conditions: for Percentage of inhibition of cell cultures: 100 micromolar
Procedure: (§1) Cell cultures. […] Briefly, small pieces of the tumors were digested into a hyaluronidase solution (Sigma-Aldrich, USA) at a concentration of 1 mg/ml during 15 minutes at 37°C, and then they were treated with 6 mg/ml of collagenase type IV (Invitrogen) during 2 hours at 37°C. Consecutively, cells were washed, and resuspended in the DMEM culture medium with high concentration of glucose (Dulbecco's Modified Eagle's Medium, Invitrogen) supplemented with 1% of antibiotics-antimycotics (Invitrogen) and with 1% of sodium pyruvate (Invitrogen), and the cells were seeded in culture slides at a concentration of 10.000 cells per square centimeter. When cells reached confluence, the adherent cells were separated using sterile trypsin at 0,5% (Invitrogen) and they were used among passages 3 and 9. For the assays shown next, tumor cells were seeded on slides at a concentration of 25.000 cells per well. A total of 6 wells containing the tumor cells were used as survival control. […] All the cultures were kept during 48 hours and later on recollected for their analysis.
The presence or absence of the amplification of the gene encoding for the NK1 receptor was determined, and then the cells were cultured in the presence of several antagonists of the NK1 receptor.
For each case, the presence or absence of amplification of the gene encoding for the NK1 receptor was determined.
In order to determine the presence of the amplification (increase in the number of copies) of the gene encoding the NK1 receptor (TAC1R), it was used the comparative genomic hybridization technique (CGH Array). Firstly genomic DNA was extracted from each case. Later, it was performed the marking and hybridization of the DNA of each sample together with DNA of a commercial reference without genomic alterations (from masculine or feminine sex, depending on the gender of the patient from whom the samples were obtained). The Array is Sureprint G3 Human CGH Microarray from the company Agilent was used, with an average separation between probes of 5.3Kb and 4.6Kb for the genes RefSeq. The reading of the microarray was done with the DNA Microarray Scanner G2565CA from Agilent, at a resolution of 3 µm. The analysis of the results was performed with the software Cytogenomics v 2.0.6.0 from Agilent with ADM-2: 6.0; Centralization: ON (Threshold: 6.0, Bin size: 10); Fuzzy zero: ON; Aberration filters: ON (minProbes=5 and minAvgAbsLopRatio= 0,5); Feature Level Filters : ON. The genomic coordinates are coincident with the NCBI36genome (hg18). Cases were distributed in two groups: Group I for those cases without the amplification of the gene encoding the NK1 receptor (locus 2p13.1-p12), and Group II for those cases with amplification of the gene encoding the NK1receptor (locus 2p13.1-p12).
The antibody against NK1 receptor (Table 36) was used at 1/50 concentration. The percentages of inhibition are expressed in percentages of variation in relation to control ± standard deviation.

[2] = tested on: Urinary bladder carcinoma (transitional cell carcinoma); assay: Inhibition of primary tumor cell cultures vs Kras mutation (Example 2); type: cell-based, human; conditions: Homo sapiens, 100 micromolar, read-out: Percentage of inhibition of cell cultures
Procedure: (§2) To obtain tumor cells from human primary tumors we used the method described in De Bari et al. (De Bari et al. 2001). Briefly, small pieces of the tumors were digested into a hyaluronidase solution (Sigma-Aldrich, USA) at a concentration of 1 mg/ml during 15 minutes at 37°C, and then they were treated with 6 mg/ml of collagenase type IV (Invitrogen) during 2 hours at 37°C. Consecutively, cells were washed, and resuspended in the DMEM culture medium with high concentration of glucose (Dulbecco's Modified Eagle's Medium, Invitrogen) supplemented with 1% of antibiotics-antimycotics (Invitrogen) and with 1% of sodium pyruvate (Invitrogen), and the cells were seeded in culture slides at a concentration of 10.000 cells per square centimeter. When cells reached confluence, the adherent cells were separated using sterile trypsin at 0,5% (Invitrogen) and they were used among passages 3 and 9. For the assays shown next, tumor cells were seeded on slides at a concentration of 25.000 cells per well. A total of 6 wells containing the tumor cells were used as survival control. […] All the cultures were kept during 48 hours and later on recollected for their analysis.
(§3) In each case the presence or not of mutations in K-ras gene was determined.
(§4) To determine the existence of mutations in the K-ras gene DNA from cancer tumor cells was extracted from samples obtained from the different cancer tumor cells, using DNA extraction kits from Takara (Madison, WI, US) or Ambion (Huntingdon, Cambridgeshire, United Kingdom), following the manufacturer's instructions, and as it has been previously published (Di Fiore F, et al. 2007). Consecutively it was analyzed by sequencing the exon 2 of the KRAS gene, , by means of PCR amplification from previously extracted cancer tumor DNA, using the following sense primer (SEQ ID NO. 15): 5'-[sequence]-3' and anti-sense primer (SEQ ID NO. 16): 5'-[sequence]-3'. After the purification using the Qiagen extraction kit, the PCR products were sequenced using the Big Dye Terminator Kit V3.1 (Applied Biosystems, Foster City, CA, U.S.) and an ABI Prism 377 or 3100 DNA sequencer (Applied Biosystems). The presence of a heterozygous mutation in the KRAS gene in cancer tumor cells of the cultures was defined as the appearance of a mutant peak of a height of at least a third of the wild type. All the sequence analysis were executed at least twice in two independent PCR.
(§5) The antibody against NK1 receptor (Table 16) was used at 1/50 concentration. The percentages of inhibition are expressed in percentage of variation in relation to control ± standard deviation.

[3] = tested on: Colon carcinoma; assay: Inhibition of primary tumor cell cultures (48 hours) vs NK1 receptor immunostaining (Example 1); type: cell-based; conditions: Homo sapiens, 1 micromolar, read-out: Percentage of inhibition of cell cultures
Procedure: (§6) Cell cultures. To obtain tumor cells from human primary tumors we used the method described in De Bari et al. (De Bari et al. 2001). Briefly, small pieces of the tumors were digested into a hyaluronidase solution (Sigma-Aldrich, USA) at a concentration of 1 mg/ml during 15 minutes at 37°C, and then they were treated with 6 mg/ml of collagenase type IV (Invitrogen) during 2 hours at 37°C. Consecutively, cells were washed, and resuspended in the DMEM culture medium with high concentration of glucose (Dulbecco's Modified Eagle's Medium, Invitrogen) supplemented with 1% of antibiotics-antimycotics (Invitrogen) and with 1% of sodium pyruvate (Invitrogen), and the cells were seeded in culture slides at a concentration of 10.000 cells per square centimeter. When cells reached confluence, the adherent cells were separated using sterile trypsin at 0,5% (Invitrogen) and they were used among passages 3 and 9. For the assays shown next, tumor cells were seeded on slides at a concentration of 25.000 cells per well. A total of 6 wells containing the tumor cells were used as survival control. […] All the cultures were kept during 48 hours and later on recollected for their analysis.
(§7) Immunohistochemistry techniques. The presence of NK1 receptors was also analyzed using immunohistochemistry techniques. Briefly, a sample of each of the cultures of the cell lines used in the present invention, was centrifuged (5 minutes at 1.500 rpm) and the pellet obtained was dehydrated using increasing concentrations of ethanol and, finally, xylol. Then, said dehydrated samples were embedded in paraffin, creating a block of cells. Such paraffin blocks were cut with a microtome at 5 microns thickness, and were placed on microscope slides adequate to perform immunohistochemistry techniques. Consecutively, they were de-paraffinized by immersing them in xylol, to be finally hydrated using a solution containing decreasing concentrations of ethanol, and finally submerged them into water. […] After this, the samples were left to cool down at room temperature for 10 minutes. The endogenous peroxidase activity was blocked with 3% peroxide of hydrogen for 30 minutes at room temperature. After washing the samples with 0.05 M of Tris buffer, they were incubated with 10% non-immune pork serum at for 30 minutes at room temperature. To analyze the expression of NK1 receptors, the cellular samples were incubated in the presence of anti-NK1 antibodies (S8305, Sigma-Aldrich) diluted 1:1000, overnight at 4°C. Afterwards, the samples were washed in Tris buffer 0.05 M at room temperature. The next step was the addition of Envision System-HRP (Dako) reagents for 30 minutes at room temperature. Then, the samples were washed again in Tris buffer 0.05 M and the immunoreactivity was visualized through light microscopy with a chromogenic solution containing 3,3'-Diaminobenzidine (DAB+; Dako, USA). To differentiate the cell nuclei, they were slightly stained with hematoxylin. As negative control, it was used samples not incubated with the primary antibody anti-NK1, which was replaced by non-immune serum. All the samples were evaluated.
(§8) To value the immunostaining in each of the cases six cuts were performed to be analyzed by the immunohistochemistry technique. In each of the six cuts, it was counted cells in 20 fields (magnification 400x) using an Olympus microscope (model CX31). In each field it was counted the total number of cells and the number of cells presenting immunostaining, calculating afterwards the percentage of cells which presented immunostaining.

[4] = tested on: Endometrium carcinoma; assay: Inhibition of primary tumor cell cultures vs Kras mutation (Example 2); type: cell-based, human; conditions: Homo sapiens, 100 micromolar, read-out: Percentage of inhibition of cell cultures
Procedure: as §1, §3, §4, §5

[5] = tested on: Thyroid carcinoma (follicular carcinoma); assay: as above; type: cell-based, human; conditions: Homo sapiens, 100 micromolar, read-out: Percentage of inhibition of cell cultures
Procedure: as §2, §3, §4, §5

[6] = tested on: Burkitt Lymphoma; assay: Inhibition of primary tumor cell cultures (48 hours) vs NK1 receptor immunostaining (Example 1); type: cell-based; conditions: Homo sapiens, 1 micromolar, read-out: Percentage of inhibition of cell cultures
Procedure: as §6, §7, §8

[7] = tested on: Breast carcinoma (ductal adenocarcinoma); assay: Inhibition of primary tumor cell cultures vs Kras mutation (Example 2); type: cell-based, human; conditions: Homo sapiens, 100 micromolar, read-out: Percentage of inhibition of cell cultures
Procedure: as §1, §3, §4, §5

[8] = tested on: Non Hodgkin Lymphoma T (diffuse T cell lymphoma); assay: as above; type: cell-based, human; conditions: Homo sapiens, T-cell, 100 micromolar, read-out: Percentage of inhibition of cell cultures
Procedure: as §6, §3, §4
(§9) The percentages of inhibition are expressed in percentage of variation in relation to control ± standard deviation.

[9] = tested on: Myeloma; assay: Inhibition of primary tumor cell cultures (48 hours) vs NK1 receptor immunostaining (Example 1); type: cell-based; conditions: Homo sapiens, 1 micromolar, read-out: Percentage of inhibition of cell cultures
Procedure: as §6, §7, §8

[10] = tested on: Lung carcinoma (small cell lung carcinoma); assay: Inhibition of primary tumor cell cultures vs Kras mutation (Example 2); type: cell-based, human; conditions: Homo sapiens, 100 micromolar, read-out: Percentage of inhibition of cell cultures
Procedure: as §2, §3, §4, §5

[11] = tested on: Prostate carcinoma; assay: as above; type: cell-based, human; conditions: Homo sapiens, 100 micromolar, read-out: Percentage of inhibition of cell cultures
Procedure: as §6, §3, §4, §9

[12] = tested on: Lung carcinoma (non small cell lung carcinoma); assay: as above; type: cell-based, human; conditions: Homo sapiens, 100 micromolar, read-out: Percentage of inhibition of cell cultures
Procedure: as §2, §3, §4, §5

[13] = tested on: human primary tumor cells; assay: Inhibition of primary tumor cell cultures vs low or high expression of the truncated form of NK1 receptor (Example 5; tumor type per table line); type: cell-based; conditions: for Percentage of inhibition of cell cultures: 100 micromolar
Procedure: as §6
The presence of the truncated form of NK1 receptor was determined and then cells were cultured in presence of several antagonists of the NK1 receptor.
In each case the presence of the truncated form of the NK1 receptor was determined.
To determine the presence of the truncated form of the gene of NK1 receptor PCR technique was performed (Polymerase Chain Reaction). The extraction of RNA, amplifications of PCR, cycle conditions and quantitative analysis were executed as it has been previously described. The specific primers were the following: For the full-length NK1R receptor (NM_001058.3; forward (SEQ ID NO: 17)-: 5'-[sequence]-3 ' and reverse- (SEQ ID NO:18): 5'-[sequence]-3') and for the truncated NK1receptor (NM_015727.2; forward (SEQ ID NO: 19): 5'-[sequence]-3 and reverse (SEQ ID NO;20): 5'-[sequence]-3').
Cases were distributed in two groups: • Group A -low expression of the truncated form of NK1 receptor- for those cases wherein the expression of the truncated form of NK1 receptor was less than double the expression of the full length form of such receptor. • Group B -high expression of the truncated form of NK1 receptor- for those cases wherein the expression of the truncated form of the NK1 receptor was higher than double the expression of the full length form of such receptor.
The percentages of inhibition are expressed in percentage of variation in relation to the control ± standard deviation.

[14] = tested on: Hodgkin lymphoma; assay: Inhibition of primary tumor cell cultures (48 hours) vs NK1 receptor immunostaining (Example 1); type: cell-based; conditions: Homo sapiens, 1 micromolar, read-out: Percentage of inhibition of cell cultures
Procedure: as §6, §7, §8

[15] = tested on: Lung carcinoma (small cell type); assay: as above; type: cell-based; conditions: Homo sapiens, 1 micromolar, read-out: Percentage of inhibition of cell cultures
Procedure: as §6, §7, §8

[16] = Cases with Kras non-mutated (wild type)
[17] = NK1 receptor immunostaining Group 1 (less than 20% of the cells)
[18] = NK1 receptor immunostaining Group 2 (20-80% of the cells)
[19] = NK1 receptor immunostaining Group 3 (more than 80% of the cells)
[20] = NK1 receptor immunostaining Intensity grade 1
[21] = NK1 receptor immunostaining Intensity grade 2
[22] = NK1 receptor immunostaining Intensity grade 3

CC(=O)N1CCN([C@H]2CCN(C(=O)N(C)[C@H](C)c3cc(C(F)(F)F)cc(C(F)(F)F)c3)[C@@H](c3ccc(F)cc3C)C2)CC1 [Casopitant]
Percentage of inhibition of cell cultures ([1]; Prostate carcinoma, Cases without amplification of the gene that encodes for the NK1 receptor): 27±5 percentage
Percentage of inhibition of cell cultures ([1]; Renal cell carcinoma (clear cell renal cell carcinoma), Cases with amplification of the gene that encodes for the NK1 receptor): 93±6 percentage
Percentage of inhibition of cell cultures ([1]; Renal cell carcinoma (clear cell renal cell carcinoma), Cases without amplification of the gene that encodes for the NK1 receptor): 27±7 percentage
Percentage of inhibition of cell cultures ([1]; Thyroid carcinoma (follicular carcinoma), Cases with amplification of the gene that encodes for the NK1 receptor): 94±6 percentage
Percentage of inhibition of cell cultures ([1]; Thyroid carcinoma (follicular carcinoma), Cases without amplification of the gene that encodes for the NK1 receptor): 26±5 percentage
Percentage of inhibition of cell cultures ([1]; Thyroid carcinoma (papillary carcinoma), Cases with amplification of the gene that encodes for the NK1 receptor): 96±5 percentage
Percentage of inhibition of cell cultures ([1]; Thyroid carcinoma (papillary carcinoma), Cases without amplification of the gene that encodes for the NK1 receptor): 24±7 percentage
Percentage of inhibition of cell cultures ([1]; Undifferentiated Pleomorphic Sarcoma (malignant fibrous histiocytoma grade 3), Cases with amplification of the gene that encodes for the NK1 receptor): 96±6 percentage
Percentage of inhibition of cell cultures ([1]; Undifferentiated Pleomorphic Sarcoma (malignant fibrous histiocytoma grade 3), Cases without amplification of the gene that encodes for the NK1 receptor): 25±7 percentage
Percentage of inhibition of cell cultures ([1]; Urinary bladder carcinoma (transitional cell carcinoma), Cases with amplification of the gene that encodes for the NK1 receptor): 97±3 percentage
Percentage of inhibition of cell cultures ([1]; Urinary bladder carcinoma (transitional cell carcinoma), Cases without amplification of the gene that encodes for the NK1 receptor): 26±4 percentage
inhibition of cell proliferation ([1]; cancer cell cultures which show amplification in the genomic region encoding the NK1 receptor, compared, non-peptidic antagonists 100 micromolar, antibody 1/50): higher inhibition
inhibition at 100 µM ([2]; Cases with Kras mutated): 25 ± 4%
inhibition at 100 µM [2, 16]: 95 ± 6%
inhibition at 1 µM [3, 17]: 13 ± 3%
inhibition at 1 µM [3, 18]: 46 ± 3%
inhibition at 1 µM [3, 19]: 92 ± 3%
inhibition at 1 µM [3, 20]: 32 ± 4%
inhibition at 1 µM [3, 21]: 54 ± 4%
inhibition at 1 µM [3, 22]: 92 ± 2%
inhibition at 100 µM ([4]; Cases with Kras mutated): 28 ± 2%
inhibition at 100 µM [4, 16]: 94 ± 4%
inhibition at 100 µM ([5]; Cases with Kras mutated): 26 ± 4%
inhibition at 100 µM [5, 16]: 96 ± 4%
inhibition at 1 µM [6, 17]: 15 ± 3%
inhibition at 1 µM [6, 18]: 46 ± 5%
inhibition at 1 µM [6, 19]: 94 ± 5%
inhibition at 1 µM [6, 20]: 37 ± 5%
inhibition at 1 µM [6, 21]: 55 ± 3%
inhibition at 1 µM [6, 22]: 93 ± 3%
inhibition at 100 µM ([7]; Cases with Kras mutated): 28 ± 6%
inhibition at 100 µM [7, 16]: 96 ± 4%
inhibition at 100 µM ([8]; Cases with Kras mutated): 26 ± 4%
inhibition at 100 µM [8, 16]: 96 ± 5%
inhibition at 1 µM [9, 17]: 16 ± 3%
inhibition at 1 µM [9, 18]: 47 ± 4%
inhibition at 1 µM [9, 19]: 94 ± 5%
inhibition at 1 µM [9, 20]: 35 ± 3%
inhibition at 1 µM [9, 21]: 55 ± 3%
inhibition at 1 µM [9, 22]: 93 ± 3%
inhibition at 100 µM ([10]; Cases with Kras mutated): 26 ± 4%
inhibition at 100 µM [10, 16]: 94 ± 2%
inhibition at 100 µM ([11]; Cases with Kras mutated): 23 ± 3%
inhibition at 100 µM [11, 16]: 93 ± 7%
inhibition at 100 µM ([12]; Cases with Kras mutated): 25 ± 5%
inhibition at 100 µM [12, 16]: 95 ± 5%
Percentage of inhibition of cell cultures ([13]; Glioma (astrocytoma), Cases with high expression of the truncated form of NK1 receptor (Group B)): 95±7 percentage
Percentage of inhibition of cell cultures ([13]; Glioma (astrocytoma), Cases with low expression of the truncated form of NK1 receptor (Group A)): 24±5 percentage
Percentage of inhibition of cell cultures ([13]; Lung carcinoma (non small cell lung carcinoma), Cases with high expression of the truncated form of NK1 receptor (Group B)): 95±6 percentage
Percentage of inhibition of cell cultures ([13]; Lung carcinoma (non small cell lung carcinoma), Cases with low expression of the truncated form of NK1 receptor (Group A)): 25±4 percentage
Percentage of inhibition of cell cultures ([13]; Melanoma (Nodular Melanoma), Cases with high expression of the truncated form of NK1 receptor (Group B)): 96±6 percentage
Percentage of inhibition of cell cultures ([13]; Melanoma (Nodular Melanoma), Cases with low expression of the truncated form of NK1 receptor (Group A)): 23±5 percentage
Percentage of inhibition of cell cultures ([13]; Non Hodgkin Lymphoma B (diffuse B cell lymphoma), Cases with high expression of the truncated form of NK1 receptor (Group B)): 97±4 percentage
Percentage of inhibition of cell cultures ([13]; Non Hodgkin Lymphoma B (diffuse B cell lymphoma), Cases with low expression of the truncated form of NK1 receptor (Group A)): 24±3 percentage
Percentage of inhibition of cell cultures ([13]; Non Hodgkin Lymphoma T (diffuse T cell lymphoma), Cases with high expression of the truncated form of NK1 receptor (Group B)): 98±3 percentage
Percentage of inhibition of cell cultures ([13]; Non Hodgkin Lymphoma T (diffuse T cell lymphoma), Cases with low expression of the truncated form of NK1 receptor (Group A)): 23±4 percentage
Percentage of inhibition of cell cultures ([13]; Prostate carcinoma, Cases with high expression of the truncated form of NK1 receptor (Group B)): 94±4 percentage
Percentage of inhibition of cell cultures ([13]; Prostate carcinoma, Cases with low expression of the truncated form of NK1 receptor (Group A)): 23±6 percentage
Percentage of inhibition of cell cultures ([13]; Thyroid carcinoma (follicular carcinoma), Cases with high expression of the truncated form of NK1 receptor (Group B)): 93±4 percentage
Percentage of inhibition of cell cultures ([13]; Thyroid carcinoma (follicular carcinoma), Cases with low expression of the truncated form of NK1 receptor (Group A)): 23±3 percentage
Percentage of inhibition of cell cultures ([13]; Thyroid carcinoma (papillary carcinoma), Cases with high expression of the truncated form of NK1 receptor (Group B)): 94±5 percentage
Percentage of inhibition of cell cultures ([13]; Thyroid carcinoma (papillary carcinoma), Cases with low expression of the truncated form of NK1 receptor (Group A)): 24±5 percentage
Percentage of inhibition of cell cultures ([13]; Undifferentiated Pleomorphic Sarcoma (malignant fibrous histiocytoma grade 3), Cases with high expression of the truncated form of NK1 receptor (Group B)): 94±5 percentage
Percentage of inhibition of cell cultures ([13]; Undifferentiated Pleomorphic Sarcoma (malignant fibrous histiocytoma grade 3), Cases with low expression of the truncated form of NK1 receptor (Group A)): 25±4 percentage
Percentage of inhibition of cell cultures ([13]; Urinary bladder carcinoma (transitional cell carcinoma), Cases with high expression of the truncated form of NK1 receptor (Group B)): 95±7 percentage
Percentage of inhibition of cell cultures ([13]; Urinary bladder carcinoma (transitional cell carcinoma), Cases with low expression of the truncated form of NK1 receptor (Group A)): 25±4 percentage
inhibition of cell proliferation ([13]; cancer cell cultures that show more expression of the truncated form of NK1 receptor, compared, non-peptidic antagonists 100 micromolar, antibody 1/50): higher inhibition
inhibition at 1 µM [14, 17]: 15 ± 2%
inhibition at 1 µM [14, 18]: 47 ± 4%
inhibition at 1 µM [14, 19]: 95 ± 4%
inhibition at 1 µM [14, 20]: 34 ± 5%
inhibition at 1 µM [14, 21]: 54 ± 4%
inhibition at 1 µM [14, 22]: 92 ± 4%
inhibition at 1 µM [15, 17]: 12 ± 2%
inhibition at 1 µM [15, 18]: 45 ± 2%
inhibition at 1 µM [15, 19]: 93 ± 4%
inhibition at 1 µM [15, 20]: 33 ± 2%
inhibition at 1 µM [15, 21]: 55 ± 3%
inhibition at 1 µM [15, 22]: 94 ± 4%
